Earlier results in US20070149500A1, “Compounds, compositions, and methods” (priority 2003, published 2007).

Tested on: A549 cells
Details: data provided by National Cancer Institute

Row | SMILES | GI50 [µM]
1 | CC(=O)O[C@H]1C(=O)[C@@]2(C)[C@H]([C@H](OC(=O)c3ccccc3)[C@]3(O)C[C@H](OC(=O)[C@H](O)[C@@H](NC(=O)c4ccccc4)c4ccccc4)C(C)=C1C3(C)C)[C@]1(OC(C)=O)CO[C@@H]1C[C@@H]2O [paclitaxel] | 0.004
2 | O=c1[nH]cc(F)c(=O)[nH]1 [5-fluorouracil] | 1
3 | NC(=O)NO [hydroxyurea] | 500
